Active and inactive are the calls of the source.
Tests used:
[1] = THP-1 cell cytotoxicity, dose response, cytotoxicity control for non-replicating M. tuberculosis project (AID 489025); type: functional
cells = type: functional
[2] = tested on: Streptococcus sp. 'group A'; assay: Streptococcus pyogenes SK(-)GAS viability under kanamycin – luminescence, BacTiterGlo, confirmation, counter-screen for streptokinase expression inhibitor project, dose response (AID 1900); type: functional, organism-based
[3] = molecular target: T1, Corticotropin-releasing factor receptor 2/Corticotropin-releasing factor-binding protein (Homo sapiens, UniProt P24387+Q13324); assay: activators of CRF receptor 2 with binding protein – uHTS hits, confirmation (AID 602473); type: functional; settings: read-out: EC50_Mean
T1 sequence (Q13324 whole entry): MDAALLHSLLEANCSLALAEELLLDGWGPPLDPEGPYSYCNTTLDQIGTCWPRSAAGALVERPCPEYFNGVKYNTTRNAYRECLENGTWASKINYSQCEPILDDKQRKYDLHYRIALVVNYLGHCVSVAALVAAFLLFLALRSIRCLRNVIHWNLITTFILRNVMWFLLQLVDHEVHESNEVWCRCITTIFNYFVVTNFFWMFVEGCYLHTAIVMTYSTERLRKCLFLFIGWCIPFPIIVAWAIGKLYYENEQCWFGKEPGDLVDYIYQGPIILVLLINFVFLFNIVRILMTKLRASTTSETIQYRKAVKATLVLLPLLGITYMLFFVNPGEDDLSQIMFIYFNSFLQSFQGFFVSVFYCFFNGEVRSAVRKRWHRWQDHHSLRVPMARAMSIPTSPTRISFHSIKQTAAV
T1 sequence (P24387 whole entry): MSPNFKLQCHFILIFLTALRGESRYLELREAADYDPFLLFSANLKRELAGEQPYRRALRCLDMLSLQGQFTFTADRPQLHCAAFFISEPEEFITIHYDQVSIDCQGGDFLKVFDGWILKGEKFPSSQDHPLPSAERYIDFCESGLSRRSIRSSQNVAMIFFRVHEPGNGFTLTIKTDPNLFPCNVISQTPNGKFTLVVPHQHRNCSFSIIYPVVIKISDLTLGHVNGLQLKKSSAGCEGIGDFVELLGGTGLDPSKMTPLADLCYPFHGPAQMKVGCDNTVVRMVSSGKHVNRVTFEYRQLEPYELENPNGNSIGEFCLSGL

Streptococcus = assay: GAS UMAA2166 growth inhibition – luminescence, BacTiterGlo, counter-screen for streptokinase expression inhibitor project, dose response (AID 1915); type: functional, organism-based;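 note: potency for reduction of bacterial viability or growth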
[4] = Luminescence Cell-Based Dose Retest to Confirm Inhibitors of Cancer Stem Cells. [Related pubchem assays (depositor defined):AID2717, AID2721]; type: functional; settings: Homo sapiens
Cytochrome P450 2C9 = Cytochrome P450 2C9 (Homo sapiens, UniProt P11712)
Cytochrome P450 3A4 = Cytochrome P450 3A4 (Homo sapiens, UniProt P08684);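 note: CYP3A4 tested as one member of a cytochrome P450 panel screen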
Bcl-2-related protein A1 = molecular target: T2, Bcl-2-related protein A1 (Mus musculus, UniProt Q07440); type: functional;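 note: confirmatory dose–response counterscreen on Bfl-1, used to check hits from a UBC13 polyubiquitin inhibitor campaign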
T2 sequence (Q07440 whole entry): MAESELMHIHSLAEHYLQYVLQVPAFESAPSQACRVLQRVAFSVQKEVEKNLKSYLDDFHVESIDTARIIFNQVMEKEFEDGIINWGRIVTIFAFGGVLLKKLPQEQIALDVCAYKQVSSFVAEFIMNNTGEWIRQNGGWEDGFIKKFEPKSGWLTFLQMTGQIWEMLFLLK

[5] = molecular target: T3, Ubiquitin-conjugating enzyme E2 N (Homo sapiens, UniProt P61088); type: functional
T3 sequence (P61088 whole entry): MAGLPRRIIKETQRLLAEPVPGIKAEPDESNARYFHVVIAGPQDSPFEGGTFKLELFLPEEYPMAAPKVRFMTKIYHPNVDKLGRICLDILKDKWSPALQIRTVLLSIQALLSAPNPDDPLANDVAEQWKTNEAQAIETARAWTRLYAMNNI

[6] = molecular target: T3, Ubiquitin-conjugating enzyme E2 N; type: functional; remark: listed apart in the source
SUMO-activating enzyme = SUMO-activating enzyme (Homo sapiens, UniProt Q9UBT2); assay: blockers of UBC9-mediated SUMO conjugation – biochemical, AlphaScreen, SUMOylation inhibitor project, confirmation (AID 2018); type: functional
[7] = microbe, parasite or virus in culture; type: functional; settings: Mycobacterium tuberculosis
[8] = molecular target: T4, Short transient receptor potential channel 4 (Mus musculus, UniProt Q9QUQ5); assay: calcium entry via TRPC4 opening agents – cell-based, HEK293 TRPC4/mu-opioid, Fluo-4 calcium, dose response (AID 434937); type: functional
T4 sequence (Q9QUQ5 whole entry): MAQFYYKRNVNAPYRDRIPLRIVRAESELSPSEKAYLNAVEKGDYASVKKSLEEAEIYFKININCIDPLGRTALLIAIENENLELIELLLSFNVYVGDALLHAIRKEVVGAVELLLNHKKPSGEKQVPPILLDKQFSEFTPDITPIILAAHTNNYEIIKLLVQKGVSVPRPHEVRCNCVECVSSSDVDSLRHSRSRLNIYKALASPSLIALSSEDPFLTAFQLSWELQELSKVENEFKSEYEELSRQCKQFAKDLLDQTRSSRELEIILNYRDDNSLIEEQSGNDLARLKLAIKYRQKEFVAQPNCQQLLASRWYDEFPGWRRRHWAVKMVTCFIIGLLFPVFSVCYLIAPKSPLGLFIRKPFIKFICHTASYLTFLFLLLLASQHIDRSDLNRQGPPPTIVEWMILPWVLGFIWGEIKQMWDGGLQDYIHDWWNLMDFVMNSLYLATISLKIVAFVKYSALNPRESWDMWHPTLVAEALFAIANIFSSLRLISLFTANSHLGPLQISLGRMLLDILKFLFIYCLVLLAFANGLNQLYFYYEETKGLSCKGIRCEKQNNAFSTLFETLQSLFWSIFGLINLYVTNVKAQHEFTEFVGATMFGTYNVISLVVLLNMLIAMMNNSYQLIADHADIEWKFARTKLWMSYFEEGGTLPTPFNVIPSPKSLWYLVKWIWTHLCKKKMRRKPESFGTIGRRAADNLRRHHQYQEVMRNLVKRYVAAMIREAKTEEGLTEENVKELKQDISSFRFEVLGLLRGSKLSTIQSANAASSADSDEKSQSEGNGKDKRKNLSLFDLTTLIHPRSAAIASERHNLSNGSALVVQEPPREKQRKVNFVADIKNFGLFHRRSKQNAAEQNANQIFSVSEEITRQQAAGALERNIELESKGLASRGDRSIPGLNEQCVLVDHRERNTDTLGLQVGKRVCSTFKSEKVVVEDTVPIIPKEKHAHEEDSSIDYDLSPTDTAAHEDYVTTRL

Nonstructural protein 1 = Nonstructural protein 1 (Influenza A virus, UniProt Q194T2); type: functional, Influenza A virus (A/California/07/2009(H1N1))
Cytochrome P450 2C19 = Cytochrome P450 2C19 (Homo sapiens, UniProt P33261); assay: Cytochrome panel assay with activity outcomes. Panel member name: p450-cyp2c19 Compounds with AC50 equal or less than 10 uM are considered active; type: functional
Cytochrome P450 1A2 = molecular target: T5, Cytochrome P450 1A2 (Homo sapiens, UniProt P05177);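 note: PubChem cytochrome P450 panel assay, CYP1A2 panel member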
T5 sequence (P05177 whole entry): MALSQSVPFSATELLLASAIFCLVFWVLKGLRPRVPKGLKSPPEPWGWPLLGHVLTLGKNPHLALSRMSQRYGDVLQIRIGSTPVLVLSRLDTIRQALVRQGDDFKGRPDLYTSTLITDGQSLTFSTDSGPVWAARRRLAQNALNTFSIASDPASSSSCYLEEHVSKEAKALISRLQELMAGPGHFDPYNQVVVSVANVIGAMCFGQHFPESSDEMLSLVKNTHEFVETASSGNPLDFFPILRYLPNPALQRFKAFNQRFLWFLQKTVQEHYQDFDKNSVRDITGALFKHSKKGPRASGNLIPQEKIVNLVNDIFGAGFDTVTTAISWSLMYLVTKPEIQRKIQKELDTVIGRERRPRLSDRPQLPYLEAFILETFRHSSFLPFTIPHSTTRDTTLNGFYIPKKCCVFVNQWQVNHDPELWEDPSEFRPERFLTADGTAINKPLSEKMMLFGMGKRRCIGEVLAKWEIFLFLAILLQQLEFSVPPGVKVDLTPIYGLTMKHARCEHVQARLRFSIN

Cytochrome P450 2D6 = Cytochrome P450 2D6 (Homo sapiens, UniProt P10635);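 note: CYP2D6 member of a cytochrome P450 panel assay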
[9] = HEK-293T cell viability reduction – luminescence, B-cell screen hits, cytotoxicity control for BCR NF-kB inhibitor project, dose response (AID 489021); type: functional, cell-based;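 note: HEK-293T cells carrying an NF-kB luciferase reporter; cells exposed to compound for about 14 hours before viability readout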
[10] = molecular target: T6, Heat shock factor protein 1 (Mus musculus, UniProt P38532); assay: decrease of HSF1-responsive luciferase luminescence – cell-based, NIH3T3, dose retest, confirmation (AID 2382); type: functional;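 note: NIH3T3 fibroblasts with HSF1-driven luciferase reporter stressed by proteasome inhibitor MG132; luminescence from HSF1-driven luciferase expression after 8 hours of MG132 stress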
T6 sequence (P38532 whole entry): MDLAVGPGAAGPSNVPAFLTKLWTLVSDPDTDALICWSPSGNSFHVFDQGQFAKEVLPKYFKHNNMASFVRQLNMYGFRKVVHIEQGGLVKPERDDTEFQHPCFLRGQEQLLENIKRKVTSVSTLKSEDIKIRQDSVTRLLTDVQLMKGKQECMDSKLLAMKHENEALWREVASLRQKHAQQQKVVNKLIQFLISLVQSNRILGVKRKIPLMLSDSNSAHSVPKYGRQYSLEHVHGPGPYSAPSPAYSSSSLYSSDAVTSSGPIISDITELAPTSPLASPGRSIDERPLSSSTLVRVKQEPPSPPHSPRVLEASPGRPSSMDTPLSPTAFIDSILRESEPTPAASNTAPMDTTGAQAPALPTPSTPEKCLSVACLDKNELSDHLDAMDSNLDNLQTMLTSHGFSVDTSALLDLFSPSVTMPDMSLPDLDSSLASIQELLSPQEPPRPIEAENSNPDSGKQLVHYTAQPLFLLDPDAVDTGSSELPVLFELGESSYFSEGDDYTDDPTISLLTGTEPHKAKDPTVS

[11] = non-specific 3'UTR reporter inhibition in Clone20-Shn3RL – cell-based, Renilla luciferase, cherry-picked, counter-screen for Shn3 inhibitor project, dose response (AID 624133); type: functional
[12] = loss of viability in HepG2 cells – cell-based, CellTiter-Glo, cherry-picked, cytotoxicity control for Shn3 inhibitor project, dose response (AID 624134); type: functional
[13] = reduction of Shn3 3'UTR-driven luciferase in osteoblasts – cell-based, Clone20 osteoblasts, firefly luciferase, cherry-picked, dose response (AID 624132); type: functional;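 note: firefly luciferase luminescence from reporter carrying the Shn3 3'UTR in osteoblasts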

Chain of Nonstructural protein 1 (Q194T2 whole entry): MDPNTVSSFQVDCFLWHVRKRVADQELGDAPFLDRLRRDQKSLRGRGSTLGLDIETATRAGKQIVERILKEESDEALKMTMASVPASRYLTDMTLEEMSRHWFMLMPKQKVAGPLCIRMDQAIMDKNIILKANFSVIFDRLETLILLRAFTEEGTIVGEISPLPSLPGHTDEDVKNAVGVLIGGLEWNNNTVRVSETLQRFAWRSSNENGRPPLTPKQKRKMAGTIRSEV
Chain of Cytochrome P450 2C9 (P11712 whole entry): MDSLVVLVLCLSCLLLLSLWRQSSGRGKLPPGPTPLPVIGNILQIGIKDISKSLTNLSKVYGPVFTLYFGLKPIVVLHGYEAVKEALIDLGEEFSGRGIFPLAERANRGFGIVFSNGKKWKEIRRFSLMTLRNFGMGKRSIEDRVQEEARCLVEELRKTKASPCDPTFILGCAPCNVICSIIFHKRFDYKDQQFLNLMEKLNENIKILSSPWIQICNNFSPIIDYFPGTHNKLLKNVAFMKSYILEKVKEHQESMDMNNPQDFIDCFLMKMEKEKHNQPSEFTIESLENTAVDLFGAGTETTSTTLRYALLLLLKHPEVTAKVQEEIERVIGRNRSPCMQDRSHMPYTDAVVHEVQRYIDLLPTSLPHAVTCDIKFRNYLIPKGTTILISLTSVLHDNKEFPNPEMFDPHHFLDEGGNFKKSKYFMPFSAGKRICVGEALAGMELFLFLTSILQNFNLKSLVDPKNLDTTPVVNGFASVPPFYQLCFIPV
Chain of SUMO-activating enzyme (Q9UBE0 whole entry): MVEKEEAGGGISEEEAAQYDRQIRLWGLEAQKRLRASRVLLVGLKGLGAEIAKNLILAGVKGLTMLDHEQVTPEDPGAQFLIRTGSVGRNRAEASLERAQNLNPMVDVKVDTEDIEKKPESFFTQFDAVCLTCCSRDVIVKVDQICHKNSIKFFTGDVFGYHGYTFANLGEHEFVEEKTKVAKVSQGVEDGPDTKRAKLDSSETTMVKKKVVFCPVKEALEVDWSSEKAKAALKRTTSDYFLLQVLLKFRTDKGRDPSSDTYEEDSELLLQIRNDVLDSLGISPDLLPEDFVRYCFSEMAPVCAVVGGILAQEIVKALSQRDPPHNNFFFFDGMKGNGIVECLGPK
Chain of SUMO-activating enzyme (Q9UBT2 whole entry): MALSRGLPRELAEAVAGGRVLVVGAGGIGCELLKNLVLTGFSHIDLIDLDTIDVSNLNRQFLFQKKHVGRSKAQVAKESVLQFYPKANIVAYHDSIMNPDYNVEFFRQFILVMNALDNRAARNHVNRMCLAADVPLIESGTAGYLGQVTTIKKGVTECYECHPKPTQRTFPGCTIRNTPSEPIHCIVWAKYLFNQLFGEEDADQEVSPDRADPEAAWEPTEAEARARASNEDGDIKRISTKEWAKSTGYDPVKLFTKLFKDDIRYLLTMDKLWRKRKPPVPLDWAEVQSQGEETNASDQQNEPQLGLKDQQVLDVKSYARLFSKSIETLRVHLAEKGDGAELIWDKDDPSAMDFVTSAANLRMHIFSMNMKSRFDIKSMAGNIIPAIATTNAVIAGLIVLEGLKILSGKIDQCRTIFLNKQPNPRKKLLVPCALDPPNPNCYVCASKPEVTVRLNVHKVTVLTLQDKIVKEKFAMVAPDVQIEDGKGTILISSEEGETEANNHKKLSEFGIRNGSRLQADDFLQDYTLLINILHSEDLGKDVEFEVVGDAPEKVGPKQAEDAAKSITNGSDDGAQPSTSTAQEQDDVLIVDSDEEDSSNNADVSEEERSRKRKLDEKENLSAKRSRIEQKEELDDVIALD
Chain of Cytochrome P450 2D6 (P10635 whole entry): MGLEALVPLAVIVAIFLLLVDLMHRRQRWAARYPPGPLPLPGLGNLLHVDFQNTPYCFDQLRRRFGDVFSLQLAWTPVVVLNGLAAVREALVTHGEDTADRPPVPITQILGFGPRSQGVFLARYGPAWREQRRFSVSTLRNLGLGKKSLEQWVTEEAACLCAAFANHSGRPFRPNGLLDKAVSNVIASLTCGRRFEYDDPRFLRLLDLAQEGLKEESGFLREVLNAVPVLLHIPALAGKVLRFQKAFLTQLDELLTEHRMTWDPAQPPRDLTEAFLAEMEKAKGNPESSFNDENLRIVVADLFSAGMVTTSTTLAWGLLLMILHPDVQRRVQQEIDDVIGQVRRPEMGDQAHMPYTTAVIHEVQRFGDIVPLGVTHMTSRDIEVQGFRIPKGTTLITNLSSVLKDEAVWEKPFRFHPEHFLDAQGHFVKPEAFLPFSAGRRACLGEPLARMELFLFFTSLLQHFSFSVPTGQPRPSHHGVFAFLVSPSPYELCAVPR
Chain of Cytochrome P450 3A4 (P08684 whole entry): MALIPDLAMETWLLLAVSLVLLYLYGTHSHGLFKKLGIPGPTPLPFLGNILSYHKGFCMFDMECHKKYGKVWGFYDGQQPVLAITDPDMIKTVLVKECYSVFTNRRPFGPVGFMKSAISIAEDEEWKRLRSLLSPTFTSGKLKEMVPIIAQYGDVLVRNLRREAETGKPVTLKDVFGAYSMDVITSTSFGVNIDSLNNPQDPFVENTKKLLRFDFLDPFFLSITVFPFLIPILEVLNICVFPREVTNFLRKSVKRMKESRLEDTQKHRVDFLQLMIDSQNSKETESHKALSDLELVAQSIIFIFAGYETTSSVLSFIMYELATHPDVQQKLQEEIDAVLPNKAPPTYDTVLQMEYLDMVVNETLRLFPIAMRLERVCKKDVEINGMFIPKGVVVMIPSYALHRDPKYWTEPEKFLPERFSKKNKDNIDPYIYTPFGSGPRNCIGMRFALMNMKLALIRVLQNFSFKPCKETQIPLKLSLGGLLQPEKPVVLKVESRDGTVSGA
Chain of Cytochrome P450 2C19 (P33261 whole entry): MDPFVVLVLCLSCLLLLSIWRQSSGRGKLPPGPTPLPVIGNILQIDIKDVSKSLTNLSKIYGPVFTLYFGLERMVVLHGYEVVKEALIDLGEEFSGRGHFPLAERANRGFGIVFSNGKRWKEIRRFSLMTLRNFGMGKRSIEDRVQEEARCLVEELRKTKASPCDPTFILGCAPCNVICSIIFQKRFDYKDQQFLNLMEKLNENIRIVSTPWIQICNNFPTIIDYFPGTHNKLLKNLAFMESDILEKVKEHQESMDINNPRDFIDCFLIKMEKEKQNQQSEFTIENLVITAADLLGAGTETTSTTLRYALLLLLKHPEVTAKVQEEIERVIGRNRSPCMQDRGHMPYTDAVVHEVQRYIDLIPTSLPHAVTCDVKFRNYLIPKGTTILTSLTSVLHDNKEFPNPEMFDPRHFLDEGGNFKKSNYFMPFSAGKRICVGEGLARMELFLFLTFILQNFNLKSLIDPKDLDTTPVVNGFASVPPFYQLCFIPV

## O=C(Nc1nnc(-c2ccc(Cl)cc2)o1)c1nc2ccccc2s1
[1]
  CC50: > 40 µM (active)
cells
  IC50: 1.5 µM (active)
[2]
  EC50: 0.289 µM (active)
[3]
  EC50: 2.26 µM (active)
Streptococcus
  EC50: 0.936 µM (active)
[4]
  AC50: 3.56 µM (active)

## CNc1oc(-c2cccs2)nc1C#N
Cytochrome P450 2C9
  AC50: inconclusive
Cytochrome P450 3A4
  AC50: 28.2 µM (inconclusive)

## CCc1cccc2c(C(=O)C(NC(C)CC)c3ccccc3)c[nH]c12 (stereo not given)
Bcl-2-related protein A1
  IC50: > 20 µM (inactive)
[5]
  IC50: 9.25 µM (active)
[6]
  IC50: 16.6 µM (active)

## NC(=O)CC(NC(=O)Cc1cccc2ccccc12)c1ccc(NC2CCCCCC2)c([N+](=O)[O-])c1 (stereo not given)
SUMO-activating enzyme
  IC50: > 100 µM (inactive)

## O=C(Nc1ccc(C(=O)NCCCN2CCN(c3ccc(F)cc3)CC2)cc1)C1=CSCCO1
Bcl-2-related protein A1
  IC50: > 20 µM (inactive)
[5]
  IC50: 10.3 µM (active)
[6]
  IC50: 12.5 µM (active)

## CC(C)N1C(=O)NC(=O)C2(Cc3cc([N+](=O)[O-])ccc3N(C)C2c2ccccc2)C1=O (stereo not given)
[7]
  CC50: > 40 µM (active)
[1]
  CC50: > 40 µM (active)
cells
  IC50: 27.3 µM (active)

## COc1cccc(OCC(=O)NN=C2c3ccccc3-c3ccccc32)c1
Cytochrome P450 2C9
  AC50: inconclusive

## COc1ccc(C(CCNCc2ccc(N(C)C)cc2)c2ccccc2OC)cc1 (stereo not given)
[8]
  EC50: 10.6 µM (active)
Nonstructural protein 1
  IC50: 20.2 µM (active)

## Cc1ccc(NN=C2C(=O)NC(=O)NC2=O)c([N+](=O)[O-])c1
Cytochrome P450 2C9
  AC50: inconclusive
Cytochrome P450 2C19
  AC50: inconclusive
Cytochrome P450 1A2
  AC50: 17.8 µM (inconclusive)

## CCCS(=O)(=O)c1ncc(Cl)c(C(=O)Nc2ccc(S(=O)(=O)Nc3ncccn3)cc2)n1
Bcl-2-related protein A1
  IC50: > 20 µM (inactive)
[5]
  IC50: > 20 µM (inactive)
[6]
  IC50: 14 µM (active)

## CSc1ccc(S(=O)(=O)Nc2ccc3c4c(cccc24)CC3)cc1
Cytochrome P450 2C9
  AC50: inconclusive
Cytochrome P450 2D6
  AC50: 14.1 µM (inconclusive)

## O=C(Nc1nnc(-c2ccccc2SCc2ccccc2)s1)Nc1ccccc1F
SUMO-activating enzyme
  IC50: 46.5 µM (active)

## Cc1ccc(S(=O)(=O)N2CCCCC2CCNC(=O)C(=O)NCc2ccncc2)cc1 (stereo not given)
[9]
  IC50: > 80 µM (inactive)

## Cc1ccc(C(=O)N2CCCC(c3ccc(Cl)cc3)=N2)cc1
[9]
  IC50: > 80 µM (inactive)

## Cc1cccc(Oc2coc3cc(OC(=O)c4cccs4)ccc3c2=O)c1
Cytochrome P450 2C9
  AC50: inconclusive
Cytochrome P450 1A2
  AC50: 14.1 µM (inconclusive)

## NNc1nccc(Nc2ccccc2C(=O)O)n1
Nonstructural protein 1
  IC50: 8.21 µM (active)

## Cc1nn(CC(=O)NCCCN2CCC(Cc3ccccc3)CC2)c(=O)c2cc(-c3ccccc3)nn12
[10]
  EC50: > 195 µM (not active)
Bcl-2-related protein A1
  IC50: > 20 µM (inactive)
[5]
  IC50: 4.59 µM (active)
[6]
  IC50: 11.4 µM (active)

## Oc1c(CN2CCCCC2)ccc2cccnc12
[11]
  AC50: 3.77 µM (active)
[12]
  AC50: 52.3 µM (active)
Nonstructural protein 1
  IC50: 2.05 µM (active)
[13]
  AC50: 2.11 µM (active)

## CCn1c(=O)cc(OCC(=O)Nc2ccc(OC)c(OC)c2)c2ccccc21
[9]
  IC50: > 80 µM (inactive)

## Cc1cc(OC(=O)c2ccccc2Cl)cc(=O)n1C
[9]
  IC50: > 80 µM (inactive)
